Results taken from patent US8536187B2 (Gilead Sciences, Inc., priority 2008, dated 2013).
pEC50: −log10 of the molar value.

How the values were obtained:
[1] = test system: HCV replicon in human hepatoma Huh-7 cell line; test: Anti-HCV replicon assay, EC50 (luciferase luminescence); format: cell-based; settings: Hepatitis C virus, Huh-7, 72 h
Summary of the method: (§1)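 Cytotoxicity (CC50) read by CellTiter-Glo luminescence after 10 min, and antiviral EC50 by luciferase signal after 30 min lysis with substrate, both at room temperature. Preceding step: 3-day exposure of 6000 Huh-7 HCV replicon cells per well to compound dilution series at 37° C, 5% CO2, in 0.5% DMSO.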

[2] = CC50 assay (CellTiter-Glo) in Huh-7 HCV replicon cells; format: cell-based; settings: human
Summary of the method: as §1

SMILES | pEC50 [1] | CC50 at 3 days ([2]; Table 2, 3 days incubation) | CC50 at 3 days ([2]; Table 1, 3 days incubation)
CCOc1ccc(-c2ccc3nc(NCc4cccc(S(C)(=O)=O)c4)nc(NCC(F)(F)F)c3n2)cn1 [Example 230, N^2-(3-(methylsulfonyl)benzyl)-6-(6-ethoxypyridin-3-yl)-N^4-(2,2,2-trifluoroethyl)pyrido [3,2-d]pyrimidine-2,4-diamine] | > 7.00 | > 10000 nM | –
CS(=O)(=O)c1cccc(CNc2nc(NC3(C(F)(F)F)CC3)c3nc(-c4ccc(N5CCNC5=O)cc4)ccc3n2)c1 [Example 111, 1-(4-(2-(3-(methylsulfonyl)benzylamino)-4-(1-(trifluoromethyl)cyclopropyl-amino)pyrido[3,2-d]pyrimidin-6-yl)phenyl)imidazolidin-2-one] | > 7.00 | 1000 to 10000 nM | –
C[C@@H](Nc1nc(NCC(F)(F)F)c2nc(-c3cccc(S(C)(=O)=O)c3)ccc2n1)c1ccc(S(=O)(=O)NC(C)(C)C)cc1 [Example 136, N-tert-butyl-4-((R)-1-(6-(3-(methylsulfonyl)phenyl)-4-(2,2,2-trifluoroethylamino)pyrido[3,2-d]pyrimidin-2-ylamino)ethyl)benzene-sulfonamide] | > 7.00 | > 10000 nM | –
Cc1ccc(-c2ccc3nc(N[C@H](C)c4ccc(S(N)(=O)=O)cc4)nc(NCC(F)(F)F)c3n2)cc1S(C)(=O)=O [Example 152, 4-((R)-1-(6-(4-methyl-3-(methylsulfonyl)phenyl)-4-(2,2,2-trifluoroethylamino)pyrido[3,2-d]pyrimidin-2-ylamino)ethyl)benzene-sulfonamide] | > 7.00 | > 10000 nM | –
CC#Cc1ccc2nc(N[C@H](C)c3ccc(S(N)(=O)=O)cc3)nc(NCC(F)(F)F)c2n1 [Example 298, (R)-4-(1-(6-(prop-1-ynyl)-4-(2,2,2-trifluoroethylamino)pyrido[3,2-d]pyrimidin-2-ylamino)ethyl)benzene-sulfonamide] | > 7.00 | > 10000 nM | –
COc1ccc(-c2ccc3nc(NCc4ccc(C)c(F)c4)nc(NCC(F)(F)F)c3n2)cc1S(C)(=O)=O [Example 176, N^2-(3-fluoro-4-methylbenzyl)-6-(4-methoxy-3-(methylsulfonyl)phenyl)-N^4-(2,2,2-trifluoroethyl) pyrido[3,2-d]pyrimidine-2,4-diamine] | > 7.00 | 1000 to 10000 nM | –
COc1ccc(-c2ccc3nc(NCc4ccc(-n5cccn5)cc4)nc(NCC(F)(F)F)c3n2)cc1S(N)(=O)=O [Example 236, 5-(2-(4-(1H-pyrazol-1-yl)benzylamino)-4-(2,2,2-trifluoroethylamino)pyrido [3,2-d]pyrimidin-6-yl)-2-methoxybenzenesulfonamide] | > 7.00 | 1000 to 10000 nM | –
CS(=O)(=O)Nc1cc(F)cc(CNc2nc(NC3(C(F)(F)F)CC3)c3nc(-c4ccc(F)cc4)ccc3n2)c1 [Example 107, N-(3-fluoro-5-((6-(4-fluorophenyl)-4-(1-(trifluoromethyl)cyclopropyl-amino)pyrido[3,2-d]pyrimidin-2-ylamino)methyl)phenyl)methane-sulfonamide] | 5.70 to 6.60 | > 10000 nM | –
COc1ccc(-c2ccc3nc(NC(C)C#CC4CC4)nc(NCC(F)(F)F)c3n2)cc1S(N)(=O)=O (stereo not shown) [Example 239, 5-(2-(4-cyclopropylbut-3-yn-2-ylamino)-4-(2,2,2-trifluoroethylamino)pyrido [3,2-d]pyrimidin-6-yl)-2-methoxybenzenesulfonamide] | > 7.00 | 1000 to 10000 nM | –
N#Cc1cc(CNc2nc(NC3(C(F)(F)F)CC3)c3nc(-c4ccc(F)cc4)ccc3n2)cc(S(N)(=O)=O)c1 [Example 49, 3-cyano-5-((6-(4-fluorophenyl)-4-(1-(trifluoromethyl)cyclopropyl-amino)pyrido[3,2-d]pyrimidin-2-ylamino)methyl)benzene-sulfonamide] | > 7.00 | > 10000 nM | –
COc1ccc(-c2ccc3nc(NCc4ccc(F)c(F)c4)nc(NC4(C(F)(F)F)CC4)c3n2)cc1S(C)(=O)=O [Example 44, N^2-(3,4-difluorobenzyl)-6-(4-methoxy-3-(methylsulfonyl)phenyl)-N^4-(1-(trifluoromethyl)cyclopropyl)pyrido[3,2-d] pyrimidine-2,4-diamine] | > 7.00 | 1000 to 10000 nM | –
NS(=O)(=O)c1cc(-c2ccc3nc(NCc4ccc(-n5cncn5)cc4)nc(NC4(C(F)(F)F)CC4)c3n2)ccc1Cl [Example 37, 5-(2-(4-(1H-1,2,4-triazol-1-yl)benzylamino)-4-(1-(trifluoromethyl)cyclopropyl-amino)pyrido[3,2-d]pyrimidin-6-yl)-2-chlorobenzenesulfonamide] | > 7.00 | 1000 to 10000 nM | –
Cc1ccc(-c2ccc3nc(NCc4ccc(-n5cncn5)cc4)nc(NCC(F)(F)F)c3n2)cc1S(C)(=O)=O [Example 179, N^2-(4-(1H-1,2,4-triazol-1-yl)benzyl)-6-(4-methyl-3-(methylsulfonyl)phenyl)-N^4-(2,2,2-trifluoroethyl)pyrido [3,2-d]pyrimidine-2,4-diamine] | > 7.00 | > 10000 nM | –
COc1ccc(-c2ccc3nc(NCCS(N)(=O)=O)nc(NCC(F)(F)F)c3n2)cc1S(C)(=O)=O [Example 172, 2-(6-(4-methoxy-3-(methylsulfonyl)phenyl)-4-(2,2,2-trifluoroethylamino)pyrido[3,2-d]pyrimidin-2-ylamino)ethanesulfonamide] | 6.60 to 7.00 | > 10000 nM | –
C#Cc1ccc2nc(N[C@H](C)c3ccc(S(N)(=O)=O)cc3)nc(OC3CC3)c2n1 [Example 294, (R)-4-(1-(4-cyclopropoxy-6-ethynylpyrido[3,2-d]pyrimidin-2-ylamino)ethyl)benzene-sulfonamide] | > 7.00 | 1000 to 10000 nM | –
CC(C)(C)NS(=O)(=O)c1cc(F)cc(CNc2nc(NC3(C(F)(F)F)CC3)c3nc(-c4ccc(Cl)c(S(C)(=O)=O)c4)ccc3n2)c1 [Example 38, N-tert-butyl-3-((6-(4-chloro-3-(methylsulfonyl)phenyl)-4-(1-(trifluoromethyl)cyclopropyl-amino)pyrido[3,2-d]pyrimidin-2-ylamino)methyl)-5-fluorobenzenesulfonamide] | > 7.00 | > 10000 nM | –
CC(C)(C)NS(=O)(=O)c1cc(F)cc(CNc2nc(NC3(C(F)(F)F)CC3)c3nc(-c4ccc(F)nc4)ccc3n2)c1 [Example 78, N-tert-butyl-3-fluoro-5-((6-(6-fluoropyridin-3-yl)-4-(1-(trifluoromethyl)cyclopropyl-amino)pyrido[3,2-d]pyrimidin-2-ylamino)methyl)benzene-sulfonamide] | 6.60 to 7.00 | > 10000 nM | –
NS(=O)(=O)c1cc(CNc2nc(NC3(C(F)(F)F)CC3)c3nc(-c4ccc(F)cc4)ccc3n2)ccc1F [Example 25, 2-fluoro-5-{[6-(4-fluorophenyl)-4-(1-trifluoromethyl-cyclopropylamino)-pyrido[3,2-d]pyrimidin-2-ylamino]-methyl}-benzenesulfonamide] | > 7.00 | > 10000 nM | –
COc1ccc(-c2ccc3nc(NCc4cccc(F)c4)nc(NC4(C(F)(F)F)CC4)c3n2)cc1S(C)(=O)=O [Example 105, N^2-(3-fluorobenzyl)-6-(4-methoxy-3-(methylsulfonyl)phenyl)-N^4-(1-(trifluoromethyl)cyclopropyl)pyrido[3,2-d] pyrimidine-2,4-diamine] | > 7.00 | > 10000 nM | –
CC[C@@H](Nc1nc(NCC(F)(F)F)c2nc(-c3ccc(F)cc3)ccc2n1)c1ccc(S(N)(=O)=O)cc1 [Example 12, (R)-4-{1-[6-(4-Fluoro-phenyl)-4-(2,2,2-trifluoro-ethylamino)-pyrido[3,2-d]pyrimidin-2-ylamino]-propyl}-benzenesulfonamide] | 5.70 to 6.60 | – | 10000 to 25000 nM
NS(=O)(=O)c1cc(CNc2nc(NC3(C(F)(F)F)CC3)c3nc(-c4ccc(F)cc4)ccc3n2)ccc1Cl [Example 88, 2-chloro-5-((6-(4-fluorophenyl)-4-(1-(trifluoromethyl)cyclopropyl-amino)pyrido[3,2-d]pyrimidin-2-ylamino)methyl)benzene-sulfonamide] | 6.60 to 7.00 | > 10000 nM | –
NS(=O)(=O)c1ccc(CNc2nc(NCC(F)(F)F)c3nc(-c4ccc(OC(F)F)nc4)ccc3n2)cc1 [Example 244, 4-((6-(6-(difluoromethoxy)pyridin-3-yl)-4-(2,2,2-trifluoroethylamino)pyrido [3,2-d]pyrimidin-2-ylamino)methyl)benzene-sulfonamide] | 6.60 to 7.00 | > 10000 nM | –
CS(=O)(=O)c1cc(-c2ccc3nc(NCc4ccc(S(N)(=O)=O)cc4)nc(NCC(F)(F)F)c3n2)ccc1OC(F)F [Example 164, 4-((6-(4-(difluoromethoxy)-3-(methylsulfonyl)phenyl)-4-(2,2,2-trifluoroethylamino)pyrido[3,2-d]pyrimidin-2-ylamino)methyl)benzene-sulfonamide] | > 7.00 | > 10000 nM | –
C[C@@H](Nc1nc(NC2(C(F)(F)F)CC2)c2nc(-c3ccc(F)nc3)ccc2n1)c1ccc(S(N)(=O)=O)cc1 [Example 79, 4-((R)-1-(6-(6-fluoropyridin-3-yl)-4-(1-(trifluoromethyl)cyclopropylamino)pyrido[3,2-d]pyrimidin-2-ylamino)ethyl) benzenesulfonamide] | > 7.00 | > 10000 nM | –
COc1ccc(-c2ccc3nc(NCc4cccc(-n5cccn5)c4)nc(NCC(F)(F)F)c3n2)cc1S(C)(=O)=O [Example 140, N^2-(3-(1H-pyrazol-1-yl)benzyl)-6-(4-methoxy-3-(methylsulfonyl)phenyl)-N^4-(2,2,2-trifluoroethyl)pyrido [3,2-d]pyrimidine-2,4-diamine] | > 7.00 | 1000 to 10000 nM | –
C#Cc1ccc2nc(N[C@H](C)c3ccc(S(N)(=O)=O)cc3)nc(O[C@@H]3C[C@@H]4C[C@@H]4C3)c2n1 [Example 314, 4-((R)-1-(4-((1S,3r,5R)-bicyclo[3.1.0]hexan-3-yloxy)-6-ethynylpyrido[3,2-d]pyrimidin-2-ylamino)ethyl) benzenesulfonamide] | > 7.00 | > 10000 nM | –
